Calls of active or inactive are those of the source. No cut-off for these calls is given here.

Test [1] has as its system HepG2. As to the kind of experiment: Anticancer activity against human HepG2 cells assessed as absence of normal spindle shape incubated at 0.098uM for 72 hrs by phase contrast inverted microscopic analysis. The test is classed as functional, cell-based.
Test [2] has as its system Caco-2. The test is described as follows: Induction of apoptosis in human Caco-2 cells assessed as total apoptotic cells incubated at 0.098 uM for 72 hrs by annexin V-FITC based propidium iodide dual staining assay (reference value: 0.04 +/- 0.005%). The test is classed as functional.
Test [3] deals with HeLa. The test is described as follows: Anticancer activity against human HeLa cells assessed as round cells incubated at 0.098uM for 72 hrs by phase contrast inverted microscopic analysis. The test is classed as functional, cell-based.
In test [4] the test system is HepG2. The test is described as follows: Induction of apoptosis in human HepG2 cells assessed as early apoptotic cells incubated at 0.098 uM for 72 hrs by annexin V-FITC based propidium iodide dual staining assay (reference value: 1.74%). The test is classed as functional.
In test [5] the test system is MCF7. The test is described as follows: Induction of apoptosis in human MCF7 cells assessed as viable cells incubated at 0.098 uM for 72 hrs by annexin V-FITC based propidium iodide dual staining assay (reference value: 99.9%). Format: functional. As to conditions: read-out: Activity.
Test [6] relates to MCF7. As to the kind of experiment: Anticancer activity against human MCF7 cells assessed as absence of normal spindle shape incubated at 0.098uM for 72 hrs by phase contrast inverted microscopic analysis. The test is classed as functional, cell-based.
Test [7] concerns Caco-2. The test is described as follows: Induction of apoptosis in human Caco-2 cells assessed as early apoptotic cells incubated at 0.098 uM for 72 hrs by annexin V-FITC based propidium iodide dual staining assay (reference value: 0.07%). Format: functional.
For test [8], the system named is HeLa. As to the kind of experiment: Induction of apoptosis in human HeLa cells assessed as early apoptotic cells incubated at 0.098 uM for 72 hrs by annexin V-FITC based propidium iodide dual staining assay (reference value: 2.77%). The test is classed as functional.
Test [9] concerns HeLa. As to the kind of experiment: Induction of apoptosis in human HeLa cells assessed as early apoptotic cells by measuring bright green patch incubated at 0.098 uM for 72 hrs by acridine orange-ethidium bromide dual staining based fluorescence microscopic analysis. The test is classed as functional, cell-based.
Test [10] deals with HeLa. As to the kind of experiment: Induction of apoptosis in human HeLa cells assessed as viable cells incubated at 0.11 uM for 72 hrs by annexin V-FITC based propidium iodide dual staining assay (reference value: 97.23%). Format: functional. The following applies: read-out: Activity.
For test [11], the system named is MCF7. As to the kind of experiment: Anticancer activity against human MCF7 cells assessed as smaller cells incubated at 0.11 uM for 72 hrs by phase contrast inverted microscopic analysis. Format: functional, cell-based.
The subject of test [12] is dsDNA. The test is described as follows: Induction of damage in dsDNA (unknown origin) assessed as DNA disruption by measuring amplitude at 100 uM incubated for 2.5 hrs by EvaGreen based fluorescence plate reader analysis. Format: nucleic-acid assay.
Test [13] concerns HeLa. The test is described as follows: Induction of oxidative stress in human HeLa cells assessed as cell death by measuring redox alteration fluorescence incubated at 0.098 uM for 72 hrs in presence of dihydro dichlorofluorescein diacetate by DCFH-DA based flow cytometric analysis relative to control. The test is classed as functional.
For test [14], the system named is HepG2. As to the kind of experiment: Anticancer activity against human HepG2 cells assessed as losing contact with neighbouring cells incubated at 0.11 uM for 72 hrs by phase contrast inverted microscopic analysis. Format: functional, cell-based.
The subject of the next test is UMUC3. The test is described as follows: Anti-clonogenicic activity in human UC3 cells assessed as reduction of colony formation at 5 uM for 24 hrs by crystal violet based staining relative to control. The test is classed as functional. Set-up: scale not given: the % may be the effect or the level left.
Test [15] deals with HepG2. As to the kind of experiment: Anticancer activity against human HepG2 cells assessed as cell shrinkage incubated at 0.11 uM for 72 hrs by phase contrast inverted microscopic analysis. The test is classed as functional, cell-based.
Test [16] concerns HepG2. As to the kind of experiment: Induction of apoptosis in human HepG2 cells assessed as pro-oxidant effect by measuring free radical generation measured at 0.11 uM after 72 hrs. Format: functional, cell-based.
In test [17] the test system is HeLa. The test is described as follows: Induction of apoptosis in human HeLa cells assessed as late apoptotic cells incubated at 0.11 uM for 72 hrs by annexin V-FITC based propidium iodide dual staining assay (reference value: 0%). Format: functional.
Test [18] deals with HepG2. As to the kind of experiment: Induction of apoptosis in human HepG2 cells assessed as early apoptotic cells by measuring bright green patch incubated at 0.11 uM for 72 hrs by acridine orange-ethidium bromide dual staining based fluorescence microscopic analysis. The test is classed as functional, cell-based.
The test system of test [19] is dsDNA. As to the kind of experiment: Induction of damage in dsDNA (unknown origin) assessed as disrupted by DNA by measuring decrease in fluorescence intensity at 100 uM incubated for 2.5 hrs by EvaGreen based fluorescence plate reader analysis. The test is classed as nucleic-acid assay.
The subject of test [20] is Caco-2. As to the kind of experiment: Anticancer activity against human Caco-2 cells assessed as losing contact with neighbouring cells incubated at 0.11 uM for 72 hrs by phase contrast inverted microscopic analysis. The test is classed as functional, cell-based.
Test [21] concerns HeLa. The test is described as follows: Anticancer activity against human HeLa cells assessed as round cells incubated at 0.11 uM for 72 hrs by phase contrast inverted microscopic analysis. Format: functional, cell-based.
The subject of test [22] is Caco-2. The test is described as follows: Induction of apoptosis in human Caco-2 cells assessed as total apoptotic cells incubated at 0.017 uM for 72 hrs by annexin V-FITC based propidium iodide dual staining assay (reference value: 0.04 +/- 0.005%). Format: functional.
In test [23] the test system is HepG2. As to the kind of experiment: Induction of apoptosis in human HepG2 cells assessed as viable cells by measuring green uniform patch incubated at 0.017 uM for 72 hrs by acridine orange-ethidium bromide dual staining based fluorescence microscopic analysis. Format: functional, cell-based.
The subject of test [24] is MCF7. As to the kind of experiment: Anticancer activity against human MCF7 cells assessed as absence of normal spindle shape incubated at 0.097uM for 72 hrs by phase contrast inverted microscopic analysis. The test is classed as functional, cell-based.
In test [25] the test system is HepG2. The test is described as follows: Induction of apoptosis in human HepG2 cells assessed as early apoptotic cells incubated at 0.097 uM for 72 hrs by annexin V-FITC based propidium iodide dual staining assay (reference value: 1.74%). Format: functional.
For test [26], the system named is MCF7. The test is described as follows: Induction of apoptosis in human MCF7 cells assessed as late apoptotic cells by measuring orange to red patch incubated at 0.097 uM for 72 hrs by acridine orange-ethidium bromide dual staining based fluorescence microscopic analysis. The test is classed as functional, cell-based.
The test system of test [27] is HeLa. As to the kind of experiment: Induction of apoptosis in human HeLa cells assessed as caspase3/7 activation at 0.097 uM using caspase-glo 3/7 as substrate relative to control. Format: functional.
Test [28] has as its system Caco-2. The test is described as follows: Induction of apoptosis in human Caco-2 cells assessed as viable cells incubated at 0.097 uM for 72 hrs by annexin V-FITC based propidium iodide dual staining assay (reference value: 99.89%). The test is classed as functional. As to conditions: read-out: Activity.
For test [29], the system named is MCF7. As to the kind of experiment: Induction of apoptosis in human MCF7 cells assessed as early apoptotic cells by measuring bright green patch incubated at 0.097 uM for 72 hrs by acridine orange-ethidium bromide dual staining based fluorescence microscopic analysis. The test is classed as functional, cell-based.
The test system of test [30] is MCF7. As to the kind of experiment: Induction of apoptosis in human MCF7 cells assessed as total apoptotic cells incubated at 0.097 uM for 72 hrs by annexin V-FITC based propidium iodide dual staining assay (reference value: 0.04 %). The test is classed as functional.
In test [31] the test system is MCF7. As to the kind of experiment: Anticancer activity against human MCF7 cells assessed as smaller cells incubated at 0.097uM for 72 hrs by phase contrast inverted microscopic analysis. The test is classed as functional, cell-based.
The test system of test [32] is HepG2. As to the kind of experiment: Induction of apoptosis in human HepG2 cells assessed as late apoptotic cells by measuring orange to red patch incubated at 0.097 uM for 72 hrs by acridine orange-ethidium bromide dual staining based fluorescence microscopic analysis. Format: functional, cell-based.
Test [33] deals with HepG2. The test is described as follows: Anticancer activity against human HepG2 cells assessed as cell shrinkage incubated at 0.097uM for 72 hrs by phase contrast inverted microscopic analysis. The test is classed as functional, cell-based.
Test [34] has as its system MCF7. As to the kind of experiment: Anticancer activity against human MCF7 cells assessed as cell shrinkage incubated at 0.097uM for 72 hrs by phase contrast inverted microscopic analysis. The test is classed as functional, cell-based.
For test [35], the system named is Caco-2. As to the kind of experiment: Anticancer activity against human Caco-2 cells assessed as smaller cells incubated at 0.097uM for 72 hrs by phase contrast inverted microscopic analysis. Format: functional, cell-based.

In the case of `O=C(CN1C(=O)CN(/N=C/c2ccc([N+](=O)[O-])o2)C1=O)c1ccc(Cl)cc1`, the result in the test with HepG2 [1], in the test on HeLa [3], in the test with MCF7 [6] and with HeLa [9] was Active. The Activity turned out to be 30.95% in the test on Caco-2 [2], 6.31% in the test with HepG2 [4], 8.53% in the test with Caco-2 [7] and 6.1% in the test with HeLa [8]. Moreover, the viability at 0.098 µM with MCF7 [5] stood at 63.6%.

Take `C#CCN1C(=O)CN(/N=C/c2ccc([N+](=O)[O-])o2)C1=O`: the viability at 0.11 µM in the test with HeLa [10] worked out at 66.4%. Besides, the outcome in the test on MCF7 [11], in the test with HepG2 [14], in the test with HepG2 [15], in the test on HepG2 [16], in the test on HepG2 [18] and in the test with dsDNA [19] was Active. Also, the outcome in the test with Caco-2 [20] and with HeLa [21] was Active. Moreover, the Activity in the test on dsDNA [12] stood at 177; in the test with HeLa [13], 30.75%; in the test with UMUC3, 75%; in the test on HeLa [17], 22.69%.

On to `O=c1[nH]cc(F)c(=O)[nH]1` [FLUOROURACIL], for which the Activity in the test on Caco-2 [22] worked out at 3.68%. For the same compound, in the test on HepG2 [23], the outcome was Active.

In the case of `NS(=O)(=O)c1ccc(-n2cc(CN3C(=O)CN(/N=C/c4ccc([N+](=O)[O-])o4)C3=O)nn2)cc1`, the outcome in the test on MCF7 [24], in the test with MCF7 [26], in the test with MCF7 [29], in the test on MCF7 [31], in the test with HepG2 [32] and in the test with HepG2 [33] was Active. In addition, the outcome in the test on MCF7 [34] and with Caco-2 [35] was Active. The Activity in the test with HepG2 [25] came out at 21.02%; with HeLa [27], 58%; with MCF7 [30], 64.08%. The viability at 0.097 µM in the test on Caco-2 [28] amounted to 32.8%.
